Holding throughout (experiment): field test of gametocidal activity (sterilisation of anthers)
Holding throughout (assay type): in vivo

The test system of experiment [1] is Sommerweizen Moskovskaya 35. Conditions: V. Periode, 1%ige wäßrige Emulsion, 10 kg/ha; for Prozentsatz des Ansetzens der freier Bestäubung: control = 100. The source says: (§1) Die gametozide Aktivität der erfindungsgemäßen Sterilisationsmittel war in Feldversuch in verschiedenen bodenklimatischen Zonen mit Teilstücken von 10 m^2 Größe in drei-- bis viermaliger Wiederholung nachgewiesen. Jedes Sterilisationsmittel wurde mindestens 5 Jahre lang geprüft.
(§2) Die Entwicklung der Perioden der Organogenese wird zytologisch überwacht. Die Behandlung von Pflanzen mit dem Sterilisationsmittel erfolgt am Anfang der fünften Periode der Organogenese nach Kupermann.
(§3) Mit dem Ahrenschieben verwirklicht man die Isolierung von Hauptähren und anderen Stockwerken in Pergamentbeuteln. Bei Weizen und Tritikale werden Einzelisolatoren verwendet. Bei Roggen schließt man je 1 Ähre von 5 bis 7 verschiedenen nebeneinander befindlichen Pflanzen in einen gemeinsamen Isolator ein. Bei Hirse wird jede Rispe getrennt isoliert. Der Sterilitätsprozentsatz (X) für Weizen, Roggen, Tritikale und Hirse wird nach der Formel [formula]
(§4) Samen von unbehandelten Kontrollpflanzen ermittelt.
(§5) Die Kornzahl in nicht isolierten Ähren von Kontrollpflanzen wird bedingt für 100% Ansetzen bei freier Bestäubung angenommen.
(§6) Um zuverlässige Angaben zu erhalten, verwendet man 20 bis 25 Isolatoren jeder Wiederholung für Weizen und Tritikale, 10 bis 15 Isolatoren jeder Wiederholung für Roggen und Hirse.
Pflanzen des Sommerweizens Sorte Moskovskaya 35 werden in der V. Periode der Organogenese (nach Kupermann) mit einer 1%igen wäßrigen Emulsion von Kaliumsalz der 2-Methyl-3-zyklohexenkarbonsäure,2-Methyl-3-zyklohexenkarbon- äthylester, Phthalsäuredipropylester, Phthalsäurediallylester, Phthalsäurediisobutylester, Kaliumsalz der Benzoesäure behandelt. Die Emulsion enthält 0,01 Masse% Dimethylsulfoxid und 0,1 Masse% C12-C14-Kalziumalkylbenzolsulfonat. Der Verbrauch an Präparat beträgt 10 kg/ha. Als Kontrolle dienen Pflanzen, behandelt mit einem Verdünner ohne Sterilisationsmittel. […]
In allen Fällen dienen als Kontrolle Pflanzen, behandelt mit einem Verdünner ohne Sterilisationsmittel. Die Prüfergebnisse sind in der Tabelle 20 angeführt. […] Periode der Organogenese erhalten.

Experiment [2] deals with diploidem Roggen Sorte Gibrid 1861/79. The settings on record: V. Periode, 1%ige wäßrige Emulsion, 6 kg/ha; for Prozentsatz des Ansetzens der Körner bei freier Bestäubung: control = 100.
Description: as §1, §2, §3, §4, §5, §6
Pflanzen von diploidem Roggen Sorte Gibrid 1861/79 werden in der V. Periode der Organogenese (nach Kupermann) mit einer 1%igen wäßrigen Emulsion von Phthalsäurediisobutylester, Kaliumsalz der 2-Methyl-3-zyklohexenkarbonsäure, 2--Methyl-3-zyklohexenkarbonsäuremethylester, Ammoniumsalz der 2-Methyl-3-zyklohexenkarbonsäure, Phthalsäurediallylester, Phthalsäuredihexylester, Ammoniumsalz der p-Hydroxybenzoesäure behandelt. Die Emulsion enthält 0,01 Masse% Dimethylsulfoxid und 0,1 Masse% C12-C14-Kalziumalkylbenzolsulfonat. Der Verbrauch an Präparat beträgt 6 kg/ha. Als Kontrolle dienen Pflanzen, behandelt mit einem Verdünner ohne Sterilisationsmittel.

For experiment [3], the system named is tetraploidem Roggen Sorte Belta. Conditions: V. Periode, 1%ige wäßrige Emulsion, 6 kg/ha; for Prozentsatz des Ansetzens bei freier Bestäubung: control = 100.
Description: as §1, §2, §3, §4, §5, §6
Pflanzen von tetraploidem Roggen Sorte Belta werden in der V. Periode der Organogenese (nach Kupermann) mit einer 1%igen wäßrigen Emulsion von Kaliumsalz der 2-Methyl-3-zy- klohexenkarbonsäure, 2-Methyl-3-zyklohexenkarbonsäuremethyl- ester, Phthalsäuredibutylester, Phthalsäuredihexylester, Phthalsäuredipropylester, Phthalsäurediallylester, Phthalsäurediisobutylester, Kaliumsalz der […] behandelt. Die Emulsion enthält 0,01 Masse% Dimethylsuloxid und 0,1 Masse% C12-C14-Kalziumalkylbenzolsulfonat. Der Verbrauch an Präparat beträgt 6 kg/ha. Als Kontrolle dienen Pflanzen behandelt mit einem Verdünner ohne Sterilisationsmittel.

The test system of experiment [4] is Hirse Sorte Mironovskoe 94. The settings on record: V. Periode, 1%ige wäßrige Emulsion, 10 kg/ha; for Prozentsatz des Ansetzens der Körner bei freier Bestäubung: control = 100.
Description: as §1, §2, §3, §4, §5, §6
Pflanzen der Hirse Sorte Mironovskoe 94 werden in der V. Periode der Organogenese (nach Kupermann) mit einer l%igen wäßrigen Emulsion von Kaliumsalz der 2-Methyl-3-zyklohexen- karbonsäure, 2-Methyl-3-zyklohexenkarbonsäuremethylester, Phthalsäuredihexylester, Phthalsäuredibutylester, Phthalsäuredipropylester, Natriumsalz der p-Hydroxybenzoesäure, Phthalsäurediäthylester, Phthalsäurediallylester behandelt. Die Emulsion enthält 0,01 Masse% Dimethylformamid und 0,1 Masse% C12-C14-Kalziumalkylbenzolsulfonat. Der Verbrauch an Präparat beträgt 10 kg/ha. Als Kontrolle dienen Pflanzen, behandelt mit einem Verdünner ohne Sterilisationsmittel. Die Prüfergebnisse sind in der Tabelle 17 angeführt. […] Periode der Organogenese erhalten.

Regarding `C=CCOC(=O)c1ccccc1C(=O)OCC=C` [Beispiel 27, Phthalsäurediallylester], in experiment [1], the “Kornzahl der Ähre bei freier Bestäubung” value is given as 31,1, the “Kornzahl der Ähre im Isolator” value is reported as 0,3, the “Prozentsatz der Sterilität” value was 98,9% and the “Prozentsatz des Ansetzens der freier Bestäubung” value is reported as 94,0%.
For `CC(C)COC(=O)c1ccccc1C(=O)OCC(C)C` [Beispiel 82, Phthalsäurediisobutylester], in experiment [2], the “Kornzahl der Ähre bei freier Bestäubung” value was 57,1, the “Kornzahl der Ähre im Isolator” value was 0,6, the “Prozentsatz der Sterilität” value is listed as 98,9% and the “Prozentsatz des Ansetzens der Körner bei freier Bestäubung” value is given as 90,9%.
Take `CCCCCCOC(=O)c1ccccc1C(=O)OCCCCCC` [Beispiel 51, Phthalsäuredihexylester]: in experiment [3], the “Kornzahl der Ähre bei freier Bestäubung” value is 45,9, the “Kornzahl der Ähre im Isolator” value is listed as 0,2, the “Prozentsatz der Sterilität” value is on record as 99,5% and the “Prozentsatz des Ansetzens bei freier Bestäubung” value is 97,4%.
For the compound `C=CCOC(=O)c1ccccc1C(=O)OCC=C` [Beispiel 53, Phthalsäurediallylester], in experiment [3], the “Kornzahl der Ähre bei freier Bestäubung” value is reported as 41,6, the “Kornzahl der Ähre im Isolator” value is given as 0,3, the “Prozentsatz der Sterilität” value is given as 99,7% and the “Prozentsatz des Ansetzens bei freier Bestäubung” value was 88,3%.
For the compound `CC1C=CCCC1C(=O)O` (stereo not shown) [Beispiel 83, Kaliumsalz der 2-Methyl-3-zyklohexenkarbonsäure], in experiment [2], the “Kornzahl der Ähre bei freier Bestäubung” value is 56,7, the “Kornzahl der Ähre im Isolator” value was 0,2, the “Prozentsatz der Sterilität” value is listed as 99,7% and the “Prozentsatz des Ansetzens der Körner bei freier Bestäubung” value was 90,2%.
In the case of `C=CCOC(=O)c1ccccc1C(=O)OCC=C` [Beispiel 86, Phthalsäurediallylester], in experiment [2], the “Kornzahl der Ähre bei freier Bestäubung” value is given as 59,6, the “Kornzahl der Ähre im Isolator” value is 0,0, the “Prozentsatz der Sterilität” value is 100,0% and the “Prozentsatz des Ansetzens der Körner bei freier Bestäubung” value is on record as 95,0%.
As for `CC1C=CCCC1C(=O)O` (stereo not shown) [Beispiel 48, Kaliumsalz der 2-Methyl-3-zy-klohexenkarbonsäure], in experiment [3], the “Kornzahl der Ähre bei freier Bestäubung” value is 45,6, the “Kornzahl der Ähre im Isolator” value is on record as 0,1, the “Prozentsatz der Sterilität” value is on record as 99,8% and the “Prozentsatz des Ansetzens bei freier Bestäubung” value is 96,8%.
Turning to `O=C([O-])c1ccccc1.[K+]` [Beispiel 29, Kaliumsalz der Benzoesäure], in experiment [1], the “Kornzahl der Ähre bei freier Bestäubung” value is 33,0, the “Kornzahl der Ähre im Isolator” value was 7,2, the “Prozentsatz der Sterilität” value was 73,8% and the “Prozentsatz des Ansetzens der freier Bestäubung” value is recorded as 99,4%.
Consider `CCCCOC(=O)c1ccccc1C(=O)OCCCC` [Beispiel 50, Phthalsäuredibutylester], for which, in experiment [3], the “Kornzahl der Ähre bei freier Bestäubung” value was 43,1, the “Kornzahl der Ähre im Isolator” value is on record as 0,0, the “Prozentsatz der Sterilität” value was 100,0% and the “Prozentsatz des Ansetzens bei freier Bestäubung” value was 91,5%.
With `CC1C=CCCC1C(=O)[O-].[K+]` (stereo not shown) [Beispiel 23, Kaliumsalz der 2-Methyl-3-zyklohexenkarbonsäure], in experiment [1], the “Kornzahl der Ähre bei freier Bestäubung” value is reported as 30,8, the “Kornzahl der Ähre im Isolator” value was 0,0, the “Prozentsatz der Sterilität” value is listed as 100,0% and the “Prozentsatz des Ansetzens der freier Bestäubung” value is recorded as 92,8%.
For `CC(C)COC(=O)c1ccccc1C(=O)OCC(C)C` [Beispiel 28, Phthalsäurediisobutylester], in that order: 31,8, 0,0, 100,0% and 95,8%.
With `CCCCCCOC(=O)c1ccccc1C(=O)OCCCCCC` [Beispiel 87, Phthalsäuredihexylester], in experiment [2], the “Kornzahl der Ähre bei freier Bestäubung” value was 56,4, the “Kornzahl der Ähre im Isolator” value is reported as 0,0, the “Prozentsatz der Sterilität” value was 100,0% and the “Prozentsatz des Ansetzens der Körner bei freier Bestäubung” value is listed as 89,8%.
Take `CCCOC(=O)c1ccccc1C(=O)OCCC` [Beispiel 93, Phthalsäuredipropylester]: in experiment [4], the “Kornzahl der Rispe bei freier Bestäubung” value is listed as 308,7, the “Kornzahl der Rispe im Isolator” value is on record as 0,0, the “Prozentsatz der Sterilität” value is recorded as 100,0% and the “Prozentsatz des Ansetzens der Körner bei freier Bestäubung” value is 81,3%.
Turning to `COC(=O)C1CCC=CC1C` (stereo not shown) [Beispiel 49, 2-Methyl-3-zyklohexenkarbonsäuremethyl-ester], in experiment [3], the “Kornzahl der Ähre bei freier Bestäubung” value was 44,2, the “Kornzahl der Ähre im Isolator” value is recorded as 0,0, the “Prozentsatz der Sterilität” value is on record as 100,0% and the “Prozentsatz des Ansetzens bei freier Bestäubung” value is 93,8%.
In the case of `CC1C=CCCC1C(=O)O` (stereo not shown) [Beispiel 85, Ammoniumsalz der 2-Methyl-3-zyklohexenkarbonsäure], in experiment [2], the “Kornzahl der Ähre bei freier Bestäubung” value was 57,8, the “Kornzahl der Ähre im Isolator” value is 0,0, the “Prozentsatz der Sterilität” value is reported as 100,0% and the “Prozentsatz des Ansetzens der Körner bei freier Bestäubung” value was 92,0%.
Take `CC(C)COC(=O)c1ccccc1C(=O)OCC(C)C` [Beispiel 54, Phthalsäurediisobutylester]: in experiment [3], the “Kornzahl der Ähre bei freier Bestäubung” value is reported as 40,4, the “Kornzahl der Ähre im Isolator” value is 0,0, the “Prozentsatz der Sterilität” value is recorded as 100,0% and the “Prozentsatz des Ansetzens bei freier Bestäubung” value is reported as 85,8%.
Take `CCCOC(=O)c1ccccc1C(=O)OCCC` [Beispiel 26, Phthalsäuredipropylester]: in experiment [1], the “Kornzahl der Ähre bei freier Bestäubung” value is 28,6, the “Kornzahl der Ähre im Isolator” value is 1,2, the “Prozentsatz der Sterilität” value was 95,6% and the “Prozentsatz des Ansetzens der freier Bestäubung” value was 86,1%.
Turning to `CCOC(=O)C1CCC=CC1C` (stereo not shown) [Beispiel 24, 2-Methyl-3-zyklohexenkarbon-äthylester], in experiment [1], the “Kornzahl der Ähre bei freier Bestäubung” value is given as 29,6, the “Kornzahl der Ähre im Isolator” value is given as 0,0, the “Prozentsatz der Sterilität” value is 100,0% and the “Prozentsatz des Ansetzens der freier Bestäubung” value is 89,2%.
On to `CCCOC(=O)c1ccccc1C(=O)OCCC` [Beispiel 52, Phthalsäuredipropylester], for which, in experiment [3], the “Kornzahl der Ähre bei freier Bestäubung” value is reported as 40,8, the “Kornzahl der Ähre im Isolator” value is listed as 0,0, the “Prozentsatz der Sterilität” value was 100,0% and the “Prozentsatz des Ansetzens bei freier Bestäubung” value is reported as 86,6%.
Turning to `CCCCOC(=O)c1ccccc1C(=O)OCCCC` [Beispiel 92, Phthalsäuredibutylester], in experiment [4], the “Kornzahl der Rispe bei freier Bestäubung” value was 351,4, the “Kornzahl der Rispe im Isolator” value is listed as 0,0, the “Prozentsatz der Sterilität” value was 100,0% and the “Prozentsatz des Ansetzens der Körner bei freier Bestäubung” value was 92,6%.
With `COC(=O)C1CCC=CC1C` (stereo not shown) [Beispiel 84, 2--Methyl-3-zyklohexenkarbonsäuremethylester], in experiment [2], the “Kornzahl der Ähre bei freier Bestäubung” value is given as 51,2, the “Kornzahl der Ähre im Isolator” value was 0,0, the “Prozentsatz der Sterilität” value is 100,0% and the “Prozentsatz des Ansetzens der Körner bei freier Bestäubung” value is recorded as 81,5%.
`O=C(O)c1ccc(O)cc1` [Beispiel 88, Ammoniumsalz der p-Hydroxybenzoesäure]: in experiment [2], the “Kornzahl der Ähre bei freier Bestäubung” value was 68,9, the “Kornzahl der Ähre im Isolator” value is given as 0,8, the “Prozentsatz der Sterilität” value was 98,5% and the “Prozentsatz des Ansetzens der Körner bei freier Bestäubung” value is given as 109,7%.

These data come from patent publication EP0364581A1, “METHOD OF STERILIZING PLANT POLLEN” (VSESOJUZNY NAUCHNO-ISSLEDOVATELSKY INST. SELSKOKHOZYAISTV. …, priority 1988, dated 1989).
